# Laboratory results reported in US8653057B1, “Prophylactic perioperative testosterone supplementation for protection of and recovery of function” (The Regents of the University of California, priority 2010, dated 2014).
# Columns and labels:
# [1] = testosterone supplementation of low-testosterone patients around radical prostatectomy (anecdotal results); type: in vivo, men
# Source text: Therefore men with either low or low normal testosterone levels can be treated with testosterone (or other androgens such as synthetic steroids structurally related to testosterone) to prevent, mitigate or treat erectile dysfunction associated with RARP/RP. A large number of testosterone replacement drugs such as Androgel can easily be given to appropriate patients prior to or even following surgery. The amount of testosterone administered is sufficient to raise the free testosterone level into the high free testosterone range as defined above (generally greater than about 9 ng/dl). Where other androgens are used, the equivalent effectiveness of each different molecule in terms of testosterone is generally known. Sufficient androgen is given so that the effectiveness of the circulating level of androgen plus testosterone falls within the high free testosterone range. As will be clear to those of ordinary skill in the art, the testosterone or other androgen is administered at the usual amount and frequency. Circulating testosterone levels are measured at appropriate intervals (i.e., weekly or monthly) and the dosage adjusted if necessary.
# We believe that preoperative supplementation will produce even more dramatic improvements. […]
# [2] = cited from earlier work
smiles,measurement,setting,value
C[C@]12CC[C@H]3[C@@H](CCC4=CC(=O)CC[C@@]43C)[C@@H]1CC[C@@H]2O [testosterone],recovery (of potency/sexual function) after prostate surgery,"[1]; supplementing low testosterone levels, anecdotal results",more rapid and more complete recovery
same,recurrence of the cancer,"[1]; testosterone supplementation, limited data",does not lead to recurrence of the cancer
same,PSA values after testosterone replacement therapy,[2],have not been shown to increase significantly
same,prostate specific antigen (PSA),"[2]; testosterone replacement after radical prostatectomy, small studies (7, 10 and 57 men), 13 and 19 months",without increasing prostate specific antigen (PSA)
